Source: article PMC8286840, “Identifying SARS-CoV-2 antiviral compounds by screening for small molecule inhibitors of Nsp3 papain-like protease” (Biochemical Journal, 2021)
Where a name gives a salt, the structure may show the parent alone. Read-outs that look alike come from different tables or passages of the source.

Tests used:
[1] = target: T1, SARS-CoV-2 PLpro (nsp3 1564–1878) (Severe acute respiratory syndrome coronavirus 2, UniProt P0DTD1); test: biochemical; design: FRET-quenched peptide (Pro3) cleavage by PLpro, 10 min pre-incubation, slope over 20 min, normalised to no-compound control; conditions: high concentration screen
[2] = target: T1, SARS-CoV-2 PLpro (nsp3 1564–1878); test: biochemical; design: FRET-quenched peptide (Pro3) cleavage by PLpro, 10 min pre-incubation, slope over 20 min, normalised to no-compound control; conditions: low concentration screen
[3] = Well no.=6014, read-out: % of control remaining
[4] = Well no.=6149, read-out: % of control remaining
[5] = Well no.=295, read-out: % of control remaining
[6] = Well no.=309, read-out: % of control remaining
[7] = Well no.=6203, read-out: % of control remaining
[8] = Well no.=5181, read-out: % of control remaining
[9] = Well no.=6349, read-out: % of control remaining
[10] = read-out: % of control remaining, Well no.=149
[11] = Well no.=2119, read-out: % of control remaining
[12] = Well no.=305, read-out: % of control remaining
[13] = Well no.=154, read-out: % of control remaining
[14] = Well no.=2397, read-out: % of control remaining
[15] = Well no.=594, read-out: % of control remaining
[16] = Well no.=6679, read-out: % of control remaining
[17] = Well no.=7687, read-out: % of control remaining
[18] = Well no.=750, read-out: % of control remaining
[19] = Well no.=6723, read-out: % of control remaining
[20] = Well no.=426, read-out: % of control remaining
[21] = Well no.=6729, read-out: % of control remaining
[22] = Well no.=6876, read-out: % of control remaining
[23] = Well no.=1237, read-out: % of control remaining
[24] = Well no.=4432, read-out: % of control remaining
[25] = Well no.=1428, read-out: % of control remaining
[26] = Well no.=608, read-out: % of control remaining
[27] = Well no.=6739, read-out: % of control remaining
[28] = Well no.=776, read-out: % of control remaining
[29] = Well no.=3342, read-out: % of control remaining
[30] = Well no.=4357, read-out: % of control remaining
[31] = Well no.=998, read-out: % of control remaining
[32] = Well no.=5961, read-out: % of control remaining
[33] = Well no.=5465, read-out: % of control remaining
[34] = Well no.=5941, read-out: % of control remaining
[35] = Well no.=5924, read-out: % of control remaining
[36] = Well no.=5662, read-out: % of control remaining
[37] = Well no.=5793, read-out: % of control remaining
[38] = Well no.=2540, read-out: % of control remaining

With c1ccc(C(OC2CCN(CCCc3nn[nH]n3)CC2)c2ccccc2)cc1 [4-(benzhydryloxy)-1-[3-(1H-tetraazol-5-yl)propyl]piperidine] the remaining activity at 3.75 µM [1, 3] was 93.3% and the remaining activity at 1.25 µM [2, 3] was 95.5%.
In the case of CC(=O)NCCCC(=O)O [4-Acetamidobutanoic acid], the remaining activity at 3.75 µM [1, 4] is reported as 106% and the remaining activity at 1.25 µM [2, 4] is reported as 110%.
Compound Nc1ccc2c3c(cccc13)C(=O)NC2=O [4-Amino-1,8-naphthalimide] has a remaining activity at 3.75 µM [1, 5] of 92.9% and a remaining activity at 1.25 µM [2, 5] of 103%.
In the case of N=C(N)c1ccc(N)cc1 [4-Aminobenzamidine dihydrochloride], the remaining activity at 3.75 µM [1, 6] is reported as 92.5% and the remaining activity at 1.25 µM [2, 6] is reported as 91.8%.
For Nc1ccc(C(=O)O)cc1 [4-Aminobenzoic acid], the remaining activity at 3.75 µM [1, 7] was 101% and the remaining activity at 1.25 µM [2, 7] was 97.3%.
In the case of Nc1ccc(C(=O)NCC(=O)O)cc1 [4-Aminohippuric Acid], the remaining activity at 3.75 µM [1, 8] is reported as 95.3%, the remaining activity at 3.75 µM [1, 9] is reported as 103% and the remaining activity at 1.25 µM [2, 8] is reported as 95.9%. It also gave a remaining activity at 1.25 µM [2, 9] of 105%.
Nc1ccncc1 [4-Aminopyridine] showed a remaining activity at 3.75 µM [1, 10] of 104% and a remaining activity at 1.25 µM [2, 10] of 104%.
Nc1ccc(C(=O)O)c(O)c1 [4-Aminosalicylic acid] showed a remaining activity at 3.75 µM [1, 11] of 101% and a remaining activity at 1.25 µM [2, 11] of 99.3%.
Compound C[C@]12CCC(=O)C(O)=C1CC[C@@H]1[C@@H]2CC[C@]2(C)C(=O)CC[C@@H]12 [4-Androsten-4-ol-3,17-dione] has a remaining activity at 3.75 µM [1, 12] of 93.5% and a remaining activity at 1.25 µM [2, 12] of 96.5%.
C[C@]12CCC(=O)C=C1CC[C@@H]1[C@@H]2CC[C@]2(C)C(=O)CC[C@@H]12 [4-Androstene-3,17-dione] was tested, and the remaining activity at 3.75 µM [1, 13] was 99.2% and the remaining activity at 1.25 µM [2, 13] was 103%.
Cc1ncc2ccccc2c1C#N [4-Cyano-3-methylisoquinoline] was tested, and the remaining activity at 3.75 µM [1, 14] was 95.8% and the remaining activity at 1.25 µM [2, 14] was 97.4%.
With O=C(OC1CCN(CCCl)CC1)C(c1ccccc1)c1ccccc1 [4-Diphenylacetoxy-N-(2-chloroethyl)piperidine hydrochloride] the remaining activity at 3.75 µM [1, 15] was 92.6% and the remaining activity at 1.25 µM [2, 15] was 92.6%.
CCc1ccc(O)cc1 [4-Ethylphenol] showed a remaining activity at 3.75 µM [1, 16] of 104% and a remaining activity at 1.25 µM [2, 16] of 103%.
In the case of NC(N)=NCCCC(=O)O [4-Guanidinobutanoic acid], the remaining activity at 3.75 µM [1, 17] is reported as 106% and the remaining activity at 1.25 µM [2, 17] is reported as 108%.
COc1cc(CC(=O)O)ccc1O [4-Hydroxy-3-methoxyphenylacetic acid] gave a remaining activity at 3.75 µM [1, 18] of 97.2% and a remaining activity at 1.25 µM [2, 18] of 99.7%.
With Cc1cc(C(=O)O)ccc1O [4-Hydroxy-3-methylbenzoic acid] the remaining activity at 3.75 µM [1, 19] was 101% and the remaining activity at 1.25 µM [2, 19] was 100%.
NNC(=O)c1ccc(O)cc1 [4-Hydroxybenzhydrazide] showed a remaining activity at 3.75 µM [1, 20] of 97% and a remaining activity at 1.25 µM [2, 20] of 97.3%.
O=C(O)c1ccc(O)cc1 [4-Hydroxybenzoic acid] gave a remaining activity at 3.75 µM [1, 21] of 105% and a remaining activity at 1.25 µM [2, 21] of 108%.
With OCc1ccc(O)cc1 [4-Hydroxybenzyl alcohol] the remaining activity at 3.75 µM [1, 22] was 95.1% and the remaining activity at 1.25 µM [2, 22] was 98.2%.
Work on NCCc1ccc(O)cc1 [4-Hydroxyphenethylamine hydrochloride] yielded a remaining activity at 3.75 µM [1, 23] of 102% and a remaining activity at 1.25 µM [2, 23] of 101%.
With CC1=C(/C=C/C(C)=C/C=C/C(C)=C/C(=O)Nc2ccc(O)cc2)C(C)(C)CCC1 [4-Hydroxyphenylretinamide] the remaining activity at 3.75 µM [1, 24] was 97.3% and the remaining activity at 1.25 µM [2, 24] was 99%.
Compound O=C(O)/C=C/c1cnc[nH]1 [4-Imidazoleacrylic acid] has a remaining activity at 3.75 µM [1, 25] of 98.1% and a remaining activity at 1.25 µM [2, 25] of 95.1%.
For OCc1cnc[nH]1 [4-Imidazolemethanol hydrochloride], the remaining activity at 3.75 µM [1, 26] was 96.7% and the remaining activity at 1.25 µM [2, 26] was 97.2%.
With Cc1ccc(O)c(O)c1 [4-Methylcatechol] the remaining activity at 3.75 µM [1, 27] was 108% and the remaining activity at 1.25 µM [2, 27] was 106%.
Work on Cc1cn[nH]c1 [4-Methylpyrazole hydrochloride] yielded a remaining activity at 3.75 µM [1, 28] of 99.2% and a remaining activity at 1.25 µM [2, 28] of 98.4%.
For Cc1cc(=O)oc2cc(O)ccc12 [4-Methylumbelliferone], the remaining activity at 3.75 µM [1, 29] was 91.9% and the remaining activity at 1.25 µM [2, 29] was 94%.
Work on CCCCCCCCCCOCCC(=O)O [4-Oxatetradecanoic acid] yielded a remaining activity at 3.75 µM [1, 30] of 107% and a remaining activity at 1.25 µM [2, 30] of 101%.
N#Cc1c(-c2ccccc2)no[n+]1[O-] [4-Phenyl-3-furoxancarbonitrile] was tested, and the remaining activity at 3.75 µM [1, 31] was 97.8% and the remaining activity at 1.25 µM [2, 31] was 97.8%.
Nc1nccc(-c2c(-c3ccc(F)cc3)ncn2C2CCCCC2)n1 [4-[1-cyclohexyl-4-(4-fluorophenyl)-1H-imidazol-5-yl]-2-pyrimidinamine dihydrochloride] gave a remaining activity at 3.75 µM [1, 32] of 102% and a remaining activity at 1.25 µM [2, 32] of 102%.
C[C@H](c1ccc(F)cc1CCCC(=O)O)N(c1cc(F)ccc1F)S(=O)(=O)c1ccc(Cl)cc1 [4-[2-((1R)-1-{[(4-chlorophenyl)sulfonyl]-2,5-difluoroanilino}ethyl)-5-fluorophenyl]butanoic acid] gave a remaining activity at 3.75 µM [1, 33] of 102% and a remaining activity at 1.25 µM [2, 33] of 98.3%.
O=C1CSc2ccccc2N1Cc1cccc(C(F)(F)F)c1 [4-[3-(trifluoromethyl)benzyl]-2H-1,4-benzothiazin-3(4H)-one] was tested, and the remaining activity at 3.75 µM [1, 34] was 103% and the remaining activity at 1.25 µM [2, 34] was 104%.
In the case of Cc1ccc(C)c(-c2cc(C(F)(F)F)nn2-c2ccc(S(N)(=O)=O)cc2)c1 [4-[5-(2,5-dimethylphenyl)-3-(trifluoromethyl)-1H-pyrazol-1-yl]benzenesulfonamide], the remaining activity at 3.75 µM [1, 35] is reported as 89.1% and the remaining activity at 1.25 µM [2, 35] is reported as 97.9%.
CC(=O)N1CCN(C(=O)/C=C/c2ccc(Sc3ccccc3C(C)C)c([N+](=O)[O-])c2)CC1 [4-[(1E)-3-(4-acetyl-1-piperazinyl)-3-oxo-1-propenyl]-2-nitrophenyl 2-isopropylphenyl sulfide] showed a remaining activity at 3.75 µM [1, 36] of 94.5% and a remaining activity at 1.25 µM [2, 36] of 94.9%.
Compound CC1(C)C=Cc2c(ccc3c2OC[C@@H](c2ccc(O)cc2O)C3)O1 [4-[(3R)-8,8-dimethyl-3,4-dihydro-2H,8H-pyrano[2,3-f]chromen-3-yl]-1,3-benzenediol] has a remaining activity at 3.75 µM [1, 37] of 104% and a remaining activity at 1.25 µM [2, 37] of 100%.
For COc1cc2ncnc(Nc3ccc(Cl)cc3F)c2cc1OC [4-[(4'-Chloro-2'-fluoro)phenylamino]-6,7-dimethoxyquinazoline hydrochloride], the remaining activity at 3.75 µM [1, 38] was 98.1% and the remaining activity at 1.25 µM [2, 38] was 96.4%.
